Results published in patent publication US8940909B2, “Indicator platform” (Biosynth AG, priority 2009, dated 2015).

Legend:
[1] = biological target: E. coli beta-galactosidase (Escherichia coli, UniProt P00722)
Protocol: Enzymatic reactions were performed in 100 mM Na2PO4 buffer, pH 7.3 containing 1 mM MgCl2 and 670 mg/l enzyme substrate. E. coli beta-galactosidase or K. lactis lactase were added to a final concentration of 1000 U/I or 1500 U/I, respectively. 30 ml reaction volumes were incubated for 5-18 hours at 37° C. with gentle shaking. The reaction product was collected by centrifugation (4400 g, 15 min), pellets were washed with 10 ml H2O and centrifuged again (4400 g, 15 min).

enteric bacterial cells = experiment: MDAB staining of bacterial colonies with indicators I4a and I5a on Tryptic Soy Agar, aerobic and anaerobic; assay type: cell-based; details: Salmonella manhattan (b-gal −); aR MDAB, equivalents 1:1; TSAYE with 40 mg/100 ml of indicator
Protocol: Tryptic Soy Agar (TSA) with yeast extract (0.6%) was used as the base plating medium. The media were autoclaved at 121° C. for 15 minutes and placed in a 50° C. water bath to cool. Indicators were added to the basal medium at a final concentration of 40 mg/100 ml (from 80 mg/ml stock solutions in DMF). Over night cultures of enteric bacterial cells in Brain Heart Infusion Broth were streaked onto the plates and incubated at 35° C. for 24 hours under aerobic and anaerobic conditions. After incubation, the colonial morphologies on the plates were recorded (Table III).
Weak staining was observed occasionally due to residual oxygen (micro-anaerobic conditions). Under aerobic conditions indigo (IN-stains) generally dominated the effects of MDAB staining. For example indicator system I4a/MDAB stained colonies violet under anaerobic but indigo blue under aerobic conditions.

[2] = tested on: beta-D-galactosidase positive/negative bacteria; experiment: IO staining of colonies of beta-D-galactosidase positive/negative bacteria (Table IVb), hue named in column head; assay type: cell-based; details: hue of fluorescence of stained colonies; 24 h on Nutrient Agar, 150 mg/l indicator, 100 mg/l IPTG
Escherichia coli = experiment: IN and IO staining of bacterial colonies under anaerobic conditions; assay type: cell-based; details: for D: Diffusion around colonies / G: Growth of colonies / I: Intensity of color / L: Localization on colonies / S: Size of colonies: Nutrient Agar plates, anaerobically incubated with E. coli
Protocol: Nutrient Agar plates containing 150 mg/l of various substrates and 100 mg/l IPTG were inoculated with Escherichia coli. Plates were put in an anaerobic jar (Anaerojar, Oxoid), an AnaeroGen sachet (Oxoid) was added, the jar was closed and incubated for 24 hours at 37° C.
IN staining cannot be used under anaerobic conditions.

Aeromonas hydrophila 292 = experiment: IO staining of colonies of beta-D-galactosidase positive/negative bacteria (Table IVb); assay type: cell-based; details: Aeromonas hydrophila strain 292, b-gal +; 24 h on Nutrient Agar, 150 mg/l indicator, 100 mg/l IPTG; for G: Growth of colonies: key: −: absent; +/−: weak; +: strong; ++: very strong
[3] = tested on: Klebsiella pneumoniae 164; experiment: as above; assay type: cell-based; details: Klebsiella pneumoniae strain 164, b-gal +; 24 h on Nutrient Agar, 150 mg/l indicator, 100 mg/l IPTG; for C: Color of colonies: key: −: absent; +/−: weak; +: strong; ++: very strong; for G: Growth of colonies: key: −: absent; +/−: weak; +: strong; ++: very strong
Klebsiella pneumoniae = experiment: IO staining of bacterial colonies on Blood Agar plates; assay type: cell-based; details: 24 h on Blood Agar, 150 mg/l I21a and 100 mg/l IPTG; for Growth: key: −: absent; +/−: weak; +: strong; ++: very strong
Protocol: Standard commercially available Blood Agar plates were impregnated with 150 mg/l 1-(2-benzoylphenyl)-6-chloro-1H-indol-3-yl-beta-D-galactopyranoside (I21a) and 100 mg/l IPTG. The plate was inoculated with Klebsiella pneumoniae.
IO stain contrasts very well with the agar plate. Further, despite the quenching effect of blood IO fluorescence is fully maintained and readily detectable.

[4] = tested on: beta-galactosidase positive Eschericha coli (NM1); experiment: IO staining of bacterial colonies on Nutrient Agar (color, fluorescence, localization, growth); for C: Color of colonies (strength): key: −: absent; +/−: weak; +: strong; ++: very strong; for F: Fluorescence of colonies (strength): key: −: absent; +/−: weak; +: strong; ++: very strong; for G: Growth of colonies: key: −: absent; +/−: weak; +: strong; ++: very strong; assay type: cell-based, E. coli; details: 150 mg/l substrate and 100 mg/l IPTG
Summary of the method: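 Indicators were added at 150 mg/l final, optionally with 100 mg/l IPTG, to nutrient agar at pH 7.4. Plates were inoculated with β-gal-positive E. coli NM1 or β-gal-negative S. enteritidis and incubated at 37 °C. Colony color was inspected at 16–48 h under white light, and fluorescence under 366 nm UV and by plate-reader scans of 48 h cells.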

[5] = tested on: beta-galactosidase negative Salmonella enteritidis (RKI 05/07992); assay type: cell-based; details: S. enteritidis (b-gal negative), 24 h, 150 mg/l substrate and 100 mg/l IPTG; note: key: −: absent; +/−: weak; +: strong; ++: very strong
Protocol: Nutrient Agar (5 g/l peptone, 5 g/l NaCl, 2 g/l yeast extract, 1 g/l beef extract, 13 g/l agar, pH 7.4) was autoclaved and allowed to cool to 50° C. Then indicators were added to final concentrations of 150 mg/l (from a 20 mg/ml stock solution in DMF).
Optionally IPTG was added to 100 mg/l (from a 100 mg/ml stock solution in H2O) and plates were poured. Agar plates were inoculated with cultures of beta-galactosidase positive Eschericha coli (NM1) or beta-galactosidase negative Salmonella enteritidis (RKI 05/07992) (pre-grown on nutrient broth for 8-18 hours) and incubated at 37° C. Plates were inspected at 16, 20, 24 and 48 hours and pictures were recorded at 18, 24, and 48 hours with a Digistore 2 Image documentation system (CAMAG) under white light.
A considerable number of indicators molecules (Table IVa, IVb) and a selection of labile groups (Table IVc) were tested with various microbial species producing different biomarker enzymes (external stimuli, eS). The color of stains ranges from yellow to red.
Plating media from Example 10 were examined under 366 nm UV irradiation at 16, 20, 24 and 48 hours for fluorescence by means of Digistore 2 Image documentation system (CAMAG). Loops of bacterial cells, grown for 48 hours on Nutrient Agar plates containing 150 mg/l beta-D-galactosidase indicator and 100 mg/l IPTG, were directly streaked into wells of black clear bottom microtiter plates. Fluorescence scans were recorded on a Spectramax M5 (Molecular Devices).

Chain of E. coli beta-galactosidase (P00722 2-1024): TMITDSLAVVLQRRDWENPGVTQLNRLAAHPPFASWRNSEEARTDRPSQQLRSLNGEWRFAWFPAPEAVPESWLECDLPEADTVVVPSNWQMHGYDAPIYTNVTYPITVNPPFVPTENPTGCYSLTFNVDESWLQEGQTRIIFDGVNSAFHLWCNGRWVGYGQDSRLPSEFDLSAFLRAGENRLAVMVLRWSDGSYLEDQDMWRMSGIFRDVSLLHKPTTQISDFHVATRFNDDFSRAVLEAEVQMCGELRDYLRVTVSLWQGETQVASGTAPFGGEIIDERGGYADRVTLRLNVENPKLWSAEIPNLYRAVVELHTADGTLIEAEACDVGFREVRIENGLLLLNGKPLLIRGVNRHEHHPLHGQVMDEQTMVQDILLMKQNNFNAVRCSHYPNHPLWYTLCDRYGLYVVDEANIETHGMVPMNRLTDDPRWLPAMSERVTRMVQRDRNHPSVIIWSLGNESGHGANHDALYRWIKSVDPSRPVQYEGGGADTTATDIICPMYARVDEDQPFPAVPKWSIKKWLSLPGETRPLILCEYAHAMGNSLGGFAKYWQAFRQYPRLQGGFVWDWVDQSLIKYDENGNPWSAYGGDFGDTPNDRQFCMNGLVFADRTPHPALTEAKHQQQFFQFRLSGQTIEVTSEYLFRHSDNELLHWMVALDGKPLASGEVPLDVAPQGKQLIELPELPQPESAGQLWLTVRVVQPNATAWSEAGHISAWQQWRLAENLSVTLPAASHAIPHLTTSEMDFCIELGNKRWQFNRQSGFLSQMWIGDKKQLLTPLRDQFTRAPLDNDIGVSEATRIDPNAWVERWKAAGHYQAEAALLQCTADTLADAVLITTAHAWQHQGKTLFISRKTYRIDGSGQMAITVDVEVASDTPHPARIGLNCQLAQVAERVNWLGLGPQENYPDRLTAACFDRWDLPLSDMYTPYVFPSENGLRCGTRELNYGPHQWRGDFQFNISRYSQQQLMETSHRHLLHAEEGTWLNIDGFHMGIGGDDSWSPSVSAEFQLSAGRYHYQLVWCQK

Row | Compound | F: Fluorescence of colonies (hue) [2] | D: Diffusion around colonies (Escherichia coli) | G: Growth of colonies (Escherichia coli) | I: Intensity of color (Escherichia coli) | L: Localization on colonies (Escherichia coli) | S: Size of colonies (Escherichia coli) | C: Color of colonies (Aeromonas hydrophila 292) | F: Fluorescence of colonies (Aeromonas hydrophila 292) | G: Growth of colonies (Aeromonas hydrophila 292) | C: Color of colonies [3] | F: Fluorescence of colonies [3] | G: Growth of colonies [3] | other results
1 | 5-Bromo-4-chloro-1H-indol-3-yl-beta-D-galactopyranoside [Indicator I4a, reference compound] | − | ++ | +/− | +/− | − | pinpoint | + | − | + | ++ | − | + | Signal upon incubation with beta-D-galactosidase in the absence of oxygen ([1]; blend with MDAB, absence of oxygen): pink dye; colonial morphology, aerobic conditions (enteric bacterial cells): Cream colored colonies; colonial morphology, microaerobic (anaerobic) conditions (enteric bacterial cells): Cream colored colonies; IN staining under anaerobic conditions (Escherichia coli; E. coli, anaerobic): failure
2 | O=C(c1ccccc1)c1ccccc1-n1cc(O[C@@H]2O[C@H](CO)[C@H](O)[C@H](O)[C@H]2O)c2ccc(Cl)cc21 [Indicator I21a, 1-(2-Benzoylphenyl)-6-chloro-1H-indol-3-yl-beta-D-galactopyranoside] | y-g | +/− | + | + | + | 0.7 mm | + | + | + | + | + | + | Product of incubation with beta-D-galactosidase ([1]; 24 h): bright yellow precipitate; Color of colonies UV (366 nm) (Klebsiella pneumoniae): Yellow-orange on a dark background; Color of colonies white/visible (Klebsiella pneumoniae): Yellow; Growth (Klebsiella pneumoniae): +
3 | COc1ccc(C(=O)c2ccccc2-n2cc(O[C@@H]3O[C@H](CO)[C@H](O)[C@H](O)[C@H]3O)c3c(Cl)c(Br)ccc32)c(OC)c1 [Indicator I28a, 5-Bromo-4-chloro-1-[2-(2,4-dimethoxybenzoyl)phenyl]-1H-indol-3-yl-beta-D-galactopyranoside] |  |  |  |  |  |  | +/− | − | + | + | +/− | + | F: Fluorescence of colonies (colour) ([4]; 24 h, 366 nm UV): (red); C: Color of colonies (colour of stain) ([4]; 24 h on Nutrient Agar): orange; G: Growth of colonies ([4]; E. coli, 24 h): +; L: Localization of stain on colonies ([4]; E. coli, 24 h): +; F: Fluorescence of colonies (strength) ([4]; E. coli, 24 h, 366 nm UV): +/−; C: Color of colonies (strength) ([4]; E. coli, 24 h on Nutrient Agar): +; C: Color of colonies (strength) [5]: −; F: Fluorescence of colonies (strength) ([5]; 366 nm UV): −
